Experimental data taken from paper PMC6804080, “Benzoxaboroles—Novel Autotaxin Inhibitors” (Molecules, 2019).

Tests used:
[1] = target: T1, Autotaxin (ATX) (Homo sapiens, UniProt Q13822); experiment: biochemical choline detection assay for ATX inhibition, LysoPC substrate; settings: for IC50: mean standard deviation from duplicate experiments; for ATX inhibition, range of activity: in words
T1 construct: we added 10 μL of recombinant ATX (2 ng/mL) in a Tris–HCl buffer
Description: All 21 new benzoxaboroles derivatives prepared herein were evaluated for ATX inhibition in vitro using a biochemical choline detection assay, combining elements of assays already described in the literature.
[…] Mother plates with serial dilutions of compounds in pure DMSO were prepared from 10 mM DMSO stock solutions. Storplate-384-deep-well-V plates (Perkin Elmer) were also used for mother plate preparation. Compounds were diluted in a DMSO in a ratio of 1:3. An aliquot of 200 nL of compound solution was transferred from the mother plate to the test plate with a Mosquito nanoliter liquid handling system (TTP labtech). The assay was performed in Spectra-Plate-384 TC, transparent, (Perkin Elmer, Cat#6007658) using a 20 µL assay volume. The total final percentage of DMSO in the test media was 1%. Compounds were tested at 11 consecutive three-fold dilutions starting from 50 µM (final concentrations) in duplicate, covering range of 0.0008–50 μM to determine IC50 values. […] After dispensing of compounds directly to the dry plate, we added 10 μL of recombinant ATX (2 ng/mL) in a Tris–HCl buffer (140 mM NaCl, 1mM MgCl2, 5 mM KCl, 3 mM CaCl2, 1 mg/ml bovin serum albumin (BSA, fatty acid free) and 100 mM Tris–HCl, pH 9). […] The above-described solution with dimethyl sulfoxide but without the test compound was used as a control. LysoPC without ATX was used as a control for the autohydrolysis of LysoPC. After 1.5 h of incubation, 20 μL of stop solution and developer was added {Choline oxidase (1.2 U/mL), Peroxidase (1.2 U/mL), TOOS (2.7 mM), 4-Aminoantipyrine (2.7 mM), and EDTA (50 mM)} to the reaction mixture, and absorbance was measured after 30 min of incubation. The absorbance was measured by using Perkin-Elmer EnVision plate reader (λ = 555 nm). Data were analyzed using GraphPad Prism software. The calculation of IC50 data, curves and quality control (QC) analysis was made by using Excel tools and GraphPadPrism software. Briefly, individual concentration–effect curves were generated by plotting the logarithm of the tested concentration of tested compounds (X) vs. corresponding percentage inhibition values (Y) using a least squares (ordinary) fit. […] QC criteria parameters (Z,’ S:B, ΔmP) were checked for every plate.

[2] = Chrom logD determination by gradient HPLC (CHI); format: physicochemical; settings: pH 7.4, Luna C18 column; for chromatographic logD: reversed-phase HPLC, Phenomenex Luna C18 column
Description: clogP values were calculated for all compounds using the Percepta software. Chrom logD was determined experimentally using a procedure described in the supplementary data. Furthermore, the correlation between calculated clogP values and experimentally determined Chrom log D values were explored for molecules containing boron functional groups such as boronic acids and benzoxaboroles.
Chrom logD values were determined from the following equation: Chrom logD = 0.0857 × CHI − 2 [39]. Chromatographic hydrophobic index (CHI) values were determined from the gradient retention times (RT). These values approximately corresponded to the volume percentage of organic component in the mobile phase when the compound elutes. CHI values were determined at pH 7.4. Chromatograms were obtained using on Agilent 1100 Series liquid chromatography system with an HPLC diode-array detector (DAD) coupled with a Micromass Quattro micro atmosphere pressure ionization (API) mass spectrometer. The column used for analyses was Phenomenex Luna C18 (50 × 3 mm, 5 µm, 100 Å). The column was maintained at 25 °C. The flow rate was 1.0 mL/min. The mobile phase was composed of 50 mM ammonium acetate in water at pH 7.4 (solvent A) and acetonitrile (solvent B). The solvent gradient condition was initially 0.5% B, and then it increased linearly to 100% B over 3.0 min, remaining at 100% B for 0.5 min, then decreasing linearly to 0% B over 0.2 min followed by an equilibration period of 1.3 min prior to the next injection. The total experimental duration was 5 min. Injection volume was 2.0 µl. Samples temperature was maintained at 15 °C in the autosampler chamber. A group of ten standard compounds having different CHI values was used for calibration of RP-HPLC [40].

[3] = kinetic solubility, turbidimetric method; format: physicochemical; settings: for solubility kinetic at 1 h: 37 °C, pH 7.4, aqueous buffer, kinetic from dmso stock, Solubility (kinetic solubility range)
Description: Turbidimetric solubility allows for a rapid determination of kinetic solubility by using small amounts of the test compound. Assay controls were α-naphtoflavone (low solubility) and sulfaphenazole (expected solubility >100µM). DMSO stock solutions (10 mM) of each compound were first serially diluted 1 in 3 in DMSO and then spiked into an aqueous buffer (100 mM PBS), resulting in 5 following final concentration: 100, 30, 10, 3 and 1 µM (each concentration was tested in duplicate). […] Compound samples were compared to a solvent control in an aqueous buffer (DMSO 1% final concentration), and a significant increase of sample absorbance was considered to have occurred when the absorbance reached a 3-fold standard deviation of the average DMSO absorbance. The calculation of solubility range data was made by Excel tool software. Results are expressed as an estimated solubility range.

[4] = in vitro plasma stability, rat plasma; format: in vitro ADME; settings: after 4 h
Description: (§1) The in vitro plasma stability of the test compounds was studied in human and rat plasma with propranolol, benflorex, and eucatropine as control substances. All compounds at final concentrations of 5 μM (0.5% DMSO) were incubated in a phosphate buffer (50 mM, pH 7.4) for 4 h at 37 °C together with plasma. Aliquots were taken at different time points (0, 30, 120 min and 4 h), followed by reaction termination by the addition of CH3CN:CH3OH 2:1 v/v., which contained diclofenac and warfarin as internal standards (IS). Samples were then centrifuged (at 1600 rpm at 4 °C for 30 min), and the resulting supernatants were subjected to LC/MS/MS analysis. Results are expressed as % remaining.

[5] = in vitro plasma stability, human plasma; format: in vitro ADME; settings: after 4 h
Description: as §1

[6] = metabolic stability in rat liver microsomes; format: in vitro ADME
Description: (§2) Metabolic stability was assessed in rat and human liver microsomes, with testosterone and propranolol as positive controls. All compounds, at a final concentration of 1 μM (0.03% DMSO), were incubated in a phosphate buffer (50 mM, pH 7.4) for 60 min at 37 °C, together with liver microsomes in the absence and presence of NADPH generating system (nicotinamide adenine dinucleotide phosphate (NADP, 2 mM), glucose-6-phosphate (20 mM), glucose-6-phosphate dehydrogenase (6U) and magnesium chloride (2 mM)). Aliquots were taken at different time points (0, 10, 20, 30, 45 and 60 min), followed by reaction termination by addition of CH3CN:CH3OH 2:1 v/v, containing diclofenac as internal standard (IS). Samples were then centrifuged (at 2000 rpm at 4 °C for 30 min), and resulting supernatants were subjected to LC/MS/MS analysis. The in vitro half-life was calculated in GraphPadPrism software from % remaining vs. time regression using non-linear regression fit. In vitro intrinsic clearance, expressed as mL/min/g liver, was determined from in vitro half-life and normalized for the protein concentration in the incubation mixture, assuming a 52.5 mg/g liver.

[7] = metabolic stability in human liver microsomes; format: in vitro ADME
Description: as §2

[8] = plasma protein binding, equilibrium dialysis, human plasma; format: in vitro ADME; settings: for fraction unbound at 4 h, 5 µM: pH 7.4, read-out: PPB: fraction bound, human (converted)
Description: (§3) Plasma protein binding was measured using the equilibrium dialysis technique. Positive controls included in this assay were: Acebutolol (low binding) and nicardipine (very high binding). The assay was performed in a 96-well Teflon dialysis unit, where each well consisted of two chambers separated by a dialysis membrane. Plasma (human and rat, commercially obtained from Seralab) spiked with each compound (final concentration: 5 µM, 0.5% DMSO) were added to one chamber, and a blank buffer solution (60 mM Na2HPO4/14 mM KH2PO4/70 mM NaCl; pH 7.4) was added to the other side of the well. Each compound was analyzed in duplicate, for 4 h at 37 °C. After 4 h, both the plasma (free and bound fraction) and buffer (only free fraction) side of the well were sampled, matrix matched, then precipitated with a STOP solution (CH3CN:CH3OH 2:1 v/v, containing diclofenac as internal standard), and centrifuged at 2000 rpm for 30 min (+4 °C). The resulting supernatants were analyzed by LC-MS/MS. The fraction bound was calculated as the concentration difference (analyte vs. internal standard peak area ratio) in the plasma and buffer sides divided by the total concentration in the plasma side. Sampling was also performed from spiked plasma at t = 0 min in order to determine recovery, i.e., % of compound detected at t = 4 h in both the plasma and buffer chambers divided by the compound detected at t = 0 min.

[9] = plasma protein binding, equilibrium dialysis, rat plasma; format: in vitro ADME; settings: pH 7.4, rat plasma, read-out: PPB: fraction bound, rat (converted)
Description: as §3

[10] = choline release assay using as a substrate

SMILES	IC50 ([1]; choline release assay using LPC C16:0 as a substrate) [nM]	ATX inhibition, range of activity [1]	Chrom logD [2]	Solubility (kinetic solubility range) ([3]; turbidimetric, PBS pH 7.4, after 1h) [µM]	PS (plasma stability), rat [4] [%remaining]	PS (plasma stability), human [5] [%remaining]	LMS: predicted in vivo hepatic clearance, rat [6] [%LBF]	LMS: predicted in vivo hepatic clearance, human [7] [%LBF]	PPB: fraction bound, human [8]	IC50 [1, 10] [nM]	chromatographic logD [2]	solubility kinetic at 1 h [3] [µM]	fraction unbound at 4 h, 5 µM [8]	fraction unbound at 4 h, 5 µM [9]
O=C(OCc1cc(Cl)cc(Cl)c1)N1CCN(C2CCN(C(=O)c3ccc4c(c3)B(O)OC4)CC2)CC1 [Compound 34]	920 ± 820	nanomolar range	5.49	>100	61.6	70.6	77	89	NA ^e/99.2%	–	–	–	–	–
O=C(OCc1cc(Cl)cc(Cl)c1)N1CCN(C2CCN(C(=O)c3ccc4c(c3)COB4O)CC2)CC1 [Compound 35, (3,5-dichlorophenyl)methyl 4-[1-(1-hydroxy-3H-2,1-benzoxaborole-5-carbonyl)-4-piperidyl]piperazine-1-carboxylate]	–	–	–	–	63.0	59.2	86	89	–	1800 ± 1750	4.58	> 100	0.017	–
O=C(OCc1cc(Cl)cc(Cl)c1)N1CCN(C2CCN(C(=O)c3ccc4c(c3)B(O)OC4)C2)CC1 (centres unmarked) [Compound 30, (3,5-dichlorophenyl)methyl 4-[1-(1-hydroxy-3H-2,1-benzoxaborole-6-carbonyl)pyrrolidin-3-yl]piperazine-1-carboxylate]	–	nanomolar range	–	–	64.5	66.5	86	82	–	180 ± 40	4.52	> 100	0.016	0.012
Cc1cc(C)cc(COC(=O)N2CCN(C3CCN(C(=O)c4ccc5c(c4)B(O)OC5)C3)CC2)c1 (centres unmarked) [Compound 43, (3,5-dimethylphenyl)methyl 4-[1-(1-hydroxy-3H-2,1-benzoxaborole-6-carbonyl)pyrrolidin-3-yl]piperazine-1-carboxylate]	–	–	–	–	59.5	79.2	80	85	–	2700 ± 2110	4.13	> 100	0.022	0.039
O=C(OCc1cc(Cl)cc(Cl)c1)N1CCN(C2CCN(C(=O)c3cccc4c3B(O)OC4)C2)CC1 (centres unmarked) [Compound 31, (3,5-dichlorophenyl)methyl 4-[1-(1-hydroxy-3H-2,1-benzoxaborole-7-carbonyl)pyrrolidin-3-yl]piperazine-1-carboxylate]	–	–	–	–	67.9	71.6	86	85	–	7500 ± 5600	4.63	> 100	0.022	–
Cc1cc(C)cc(COC(=O)N2CCN(C3CN(C(=O)c4ccc5c(c4)B(O)OC5)C3)CC2)c1 [Compound 45, (3,5-dimethylphenyl)methyl 4-[1-(1-hydroxy-3H-2,1-benzoxaborole-6-carbonyl)azetidin-3-yl]piperazine-1-carboxylate]	–	–	–	–	68.6	72.8	61	84	–	1000 ± 1150	4.17	> 100	0.041	0.056
